Measured values taken from patent publication US20230302131A1, “MPC INHIBITION FOR PRODUCING T-CELLS WITH A MEMORY PHENOTYPE” (UNIVERSITÉ DE LAUSANNE, priority 2020, published 2023).

Tested on: adult human CD8 T cells
Experiment: Adult human PBMC activation with anti-CD3/CD28 beads, T cell phenotype by flow cytometry
Type: cell-based
Conditions: adult PBMCs, day 9, vs DMSO
Experimental: FIG. 7: MPC inhibition during the activation and culture of adult human T cells induces a memory phenotype. (A) Experimental design. PBMCs were isolated from adult healthy volunteers and activated with anti-CD3/CD28 beads in the presence of DMSO or UK5099 (25 μM). Beads were removed at day 5 and T cell phenotype was analysed at day 9. (B) Percentage of CD8 T cells expressing the memory marker CD62L. (C) The mean fluorescent intensity of CD62L in the respective positive population. (D) Percentage of CD8 T cells expressing markers that allows their identification as stem cell memory T cells (TSCM). (E-F) Mitochonrial mass (identified by MitoGreen staining, E) and mitochondrial membrane potential (TMRM, F), measured by flow cytometry and expressed as fold change as compared to DMSO. (G) Mitochondrial membrane potential normalized for the mitochondrial mass, expressed as the ratio of […], fold change as compared to DMSO. Pooled data from 2 independant experiments. ns: non-significant, *p<0.05, **[…], ***p<0.001. Data represents mean±s.e.m.
Heparinised blood was diluted with PBS and pipetted on top of Ficoll-paque (LymphoPrep). After centrifugation at 1800 rpm for 20 minutes at room temperature, the layer of cells at the intersection, containing the PBMCs was removed, washed and resuspended at 5×10^5 cells/ml of RPMI medium containing 8% human serum (AB serum), antibiotics, 2 mM L-Glutamine, 1% non-essential amino acids, 1 mM sodium pyruvate and 50 μM β-mercaptoethanol (all Gibco). Cells were activated with Human T-activator CD3/CD28 Dynabeads at a 1 bead/cell ratio with 150 IU/ml human recombinant IL2 and DMSO or 25 μM UK5099. Throughout the culture, cells were regularly split when necessary and beads were removed at day 5. At day 9, a fraction of the cells was stained with antibodies for flow cytometry analysis or for mitochondrial analysis.

CC(C)(O)CNc1nc(Nc2ccnc(C(F)(F)F)c2)nc(-c2cccc(C(F)(F)F)n2)n1 [AG221]
population of CD8 T cells positive for CD62L (UK5099 25 μM): further induce
mean fluorescent intensity of the CD62L signal in the CD62L-positive cells: increased
